From patent publication US8252807B2, “Methods of inhibiting the interaction between S100 and the receptor for advanced glycation end-products” (Board of Regents, The University of Texas System, priority 2007, dated 2012)

Legend:
[1] = target: T1, S100P binding with RAGE (Homo sapiens, UniProt P25815); assay: S100P binding with RAGE ELISA (sRAGE coated plate)
T1 construct: full-length human S100P cDNA (NM_005980) was cloned into the pTrcHis2 vector; His tag
T1 sequence (P25815 1-95): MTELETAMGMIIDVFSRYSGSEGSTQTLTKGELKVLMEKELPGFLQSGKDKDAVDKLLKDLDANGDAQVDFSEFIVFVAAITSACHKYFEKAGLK
Experimental: After removing un-bound S100P by washing with detergent, the bound S100P and RAGE complex was quantified by adding HRP labeled antibody against S100P. *, P=0.04 C5 μM versus cromolyn 5 μM. Two-tailed two-sample (unpaired) Student's t-tests were used to determine P values.

[2] = system: NFκB activity in MPanc-96 cells; assay: S100P stimulated NFκB luciferase reporter, MPanc-96; assay type: cell-based, human; conditions: S100P 100 nM, compound 1 μM, 5 hours
Experimental: MPanc-96 pancreatic cancer cell lines stably expressing an NFκB luciferase reporter were examined for the effects of S100P, cromolyn and C5. Cells were plated at 5.0×10^3 cells/well, treated for 5 hours with 100 nM of S100P, with or without cromolyn and C5 (1 μM), and activity of a luciferase gene driven by the NFkB promoter was analyzed. P=0.05 C5 versus cromolyn. Two-tailed two-sample (unpaired) Student's t-tests were used to determine P values.

[3] = system: SW480 colon cells; assay: SW480 colon cell proliferation; assay type: cell-based; conditions: cromolyn 100 μM, up to three days
Experimental: SW480 colon cells were cultured for up to three days in the presence of cromolyn (100 μM), and cell proliferation was analyzed. *, P<0.05.

[4] = system: SKOV3 ovarian cells; assay: SKOV3 ovarian cell proliferation; assay type: cell-based; conditions: 24, 48 and 72 hours
Experimental: SKOV3 ovarian cells were cultured for up to three days in the presence of different concentrations of cromolyn, and cell proliferation was analyzed at 24, 48, and 72 hours. *, P<0.05.

[5] = system: BxPC-3 cells; assay: Matrigel invasion assay, BxPC-3; assay type: cell-based; conditions: 24 hours; for BxPC-3 cells invaded, mean: 0 μM mean=19.3%
Experimental: FIGS. 2A-2D show the effect of cromolyn on pancreatic cancer cell invasion. Panc-1 and BxPC-3 cells were plated in Bio-coat matrigel and control chambers and cultured in serum-free culture media. After 24 hours non-invaded cells in the upper chamber were removed, and cells that invaded onto the lower surface of the membrane were counted from five adjacent fields. […] Data are expressed as the percent invasion through the matrigel matrix and membrane relative to migration through the control membrane. Means and 95% confidence intervals from three independent experiments performed in triplicate are shown. Two-tailed two-sample (unpaired) Student's t-tests were used to determine P values. Panc-1 and BxPC-3 cells were seeded in BIOCOAT matrigel invasion chambers and in control chambers without matrigel (Becton-Dickinson, Bedford, Mass.) according to the manufacturer's protocol. Panc-1 cells were seeded with S100P (100 nM) with or without cromolyn (100 μM), and BxPC-3 cells were seeded with or without cromolyn (1-100 μM). Briefly, 2.0×10^5 cells in 300 μL top solution (serum-free media) were added to each chamber and allowed to invade matrigel for 24 hours at 37° C. in a 5% CO2 atmosphere. The non-invading cells on the upper surface of membrane were removed from the chambers with a cotton swab, and the invading cells on the lower surface of the membrane were fixed and stained using a Diff-Quick stain kit (Becton Dickinson, Bedford, Mass.). After two washes with water, the chambers were allowed to air dry. The numbers of invading cells in five adjacent microscope fields per membrane were counted at 20× magnification to obtain the average number of cells per field. Data are expressed as the percent invasion through the matrigel matrix and membrane relative to the migration through the control membrane. The assays were performed three times.

[6] = system: PC3 prostate cells; assay: PC3 prostate cell proliferation; assay type: cell-based; conditions: 24, 48 and 72 hours
Experimental: PC3 prostate cells were cultured for up to three days in the presence of different concentrations of cromolyn, and cell proliferation was analyzed at 24, 48, and 72 hours. *, P<0.05.

[7] = target: T2, S100P (Homo sapiens, UniProt P25815); assay: S100P binding to cromolyn using affinity chromatography; conditions: cromolyn coupled to AF-TOYOPEARL; EGTA elution; control column did not retain
T2 construct: full-length human S100P cDNA (NM_005980) was cloned into the pTrcHis2 vector; His tag; made in house
Experimental: Cromolyn was coupled with the amino group of AF-amino TOYOPEARL to generate a cromolyn affinity column. A negative control column was prepared by blocking the amino group. Purified S100P was added to both columns, which were then washed extensively. Protein was eluted from the columns using EGTA and subjected to sodium dodecylsulfate polyacrylamide gel electrophoresis and staining with Commassie blue. Lane 1 of the gel is the molecular weight marker; lane 2 is the eluate from the control column; and lane 3 is the eluate from the cromolyn column (arrow, S100P). The gel shown is one of three independent experiments.
Cromolyn was coupled to AF-TOYOPEARL resin as described in Shishibori, et al., Three distinct anti-allergic drugs, amlexanox, cromolyn and tranilast, bind to S100A 12 and S100A13 of the S100 protein family; Biochem. J. 1999 Mar. 15; 338 (Pt 3):583-9. Briefly, 0.1 grams of cromolyn was dissolved in 1 mL of N,N-dimethylformamide and added to 7 mL (5 grams wet mass) AF-TOYOPEARL. Next, 0.5 grams of N-ethyl-N-(3-dimethylaminopropyl) carbodiimide hydrochloride, suspended in 10 mL of N,N-dimethylformamide, was added to the cromolyn+AF-TOYOPEARL slurry. The pH was adjusted to 5.0, and the slurry was incubated with gentle shaking for 48 hours at 25° C. As a negative control, a column was prepared by blocking the amino group of AF-TOYOPEARL with sodium acetate and acetic anhydride. […]

[8] = system: SKOV3 ovarian cells; assay: SKOV3 ovarian cell viability with taxol; assay type: cell-based; conditions: taxol 5 μM, cromolyn 10 μM, 48 hours
Experimental: SKOV3 ovarian cells were plated and treated with taxol (5 μM) either in the presence or absence of cromolyn (10 μM) for 48 hours. Cell viability was analyzed after 48 hours. *, P<0.05.

[9] = system: NFκB promoter activity in BxPC-3 cells; assay: Luciferase assay for NFκB activity, BxPC-3; assay type: cell-based; conditions: for basal NFκB activity in BxPC-3 cells, mean: 5 hours, 0 μM mean=1.4×10^6

Question: Which “concentration achieving the same level of S100P inhibition” value [1] does the source give for `O=C(O)c1cc(=O)c2c(OCC(O)COc3cccc4oc(C(=O)O)cc(=O)c34)cccc2o1` [cromolyn, disodium 1,3-bis[(2′-carboxylatochromon-5′-yl)oxy]-2-hydroxypropane] here?
Answer: 5 µM

Question: What about the “interaction between S100P with RAGE” value [1] of the same compound?
Answer: blocked

Question: And the “NFκB activity in pancreatic cancer cells in vitro” value [2]?
Answer: inhibit NFκB activity

Question: And the “growth of SW480 cells” value [3]?
Answer: reduced growth

Question: And the “growth of SKOV3 cells” value [4]?
Answer: reduced the growth

Question: And the “BxPC-3 cells invaded, difference versus 0 μM” value ([5]; cromolyn 10 μM)?
Answer: 10.0%

Question: What about the “BxPC-3 cells invaded, mean” value ([5]; cromolyn 10 μM) of the same compound?
Answer: 9.3%

Question: And the “BxPC-3 cells invaded, difference versus 0 μM” value ([5]; cromolyn 100 μM)?
Answer: 11.7%

Question: What about the “BxPC-3 cells invaded, mean” value ([5]; cromolyn 100 μM) of the same compound?
Answer: 7.7%

Question: What about the “growth of PC3 cells” value [6] of the same compound?
Answer: reduced growth

Question: And the “S100P retained by cromolyn affinity column” value [7]?
Answer: retained S100P

Question: What about the “cell killing effect of taxol on ovarian cancer cells” value [8] of the same compound?
Answer: increased the cell killing effect of taxol

Question: And the “basal NFκB activity in BxPC-3 cells, difference versus 0 μM” value ([9]; cromolyn 10 μM)?
Answer: 4.7×10^5 photons/sec

Question: And the “basal NFκB activity in BxPC-3 cells, mean” value ([9]; cromolyn 10 μM)?
Answer: 9.4×10^5 photons/sec

Question: What about the “basal NFκB activity in BxPC-3 cells, difference versus 0 μM” value ([9]; cromolyn 100 μM) of the same compound?
Answer: 5.9×10^5 photons/sec

Question: What about the “basal NFκB activity in BxPC-3 cells, mean” value ([9]; cromolyn 100 μM) of the same compound?
Answer: 8.2×10^5 photons/sec
